Measurements from the NIST ThermoML archive (doi:10.1021/je030136n).

Assay: xn = mol fraction of the nth substance listed
Conditions: Liquid, Pulse-echo method

CCCCCCC [heptane] + CCCO
Conditions	speed of sound [m/s]
313.15 K, 100 kPa, x2 = 0.1008	1061
313.15 K, 100 kPa, x2 = 0.4992	1074.8
313.15 K, 30400 kPa, x2 = 0.1008	1267.9
313.15 K, 45590 kPa, x2 = 0.4992	1349.9
313.15 K, 60790 kPa, x2 = 0.3008	1416.4
313.15 K, 75990 kPa, x2 = 0.4992	1481.4
313.15 K, 75990 kPa, x2 = 0.7016	1486.3
313.15 K, 91190 kPa, x2 = 0.3008	1539.3
313.15 K, 91190 kPa, x2 = 0.4992	1539.3
313.15 K, 101320 kPa, x2 = 0.4992	1575.5
313.15 K, 111450 kPa, x2 = 0.3008	1611.5
313.15 K, 121580 kPa, x2 = 0.3008	1645.1
313.16 K, 30400 kPa, x2 = 0.7986	1293.2
313.16 K, 91190 kPa, x2 = 0.1008	1543.3
313.16 K, 101320 kPa, x2 = 0.3008	1576.2
313.16 K, 121580 kPa, x2 = 0.4992	1643.3
313.17 K, 100 kPa, x2 = 0.3008	1065
313.17 K, 30400 kPa, x2 = 0.3008	1268.1
313.17 K, 75990 kPa, x2 = 0.3008	1480.3
313.17 K, 111450 kPa, x2 = 0.4992	1610.1
313.17 K, 111450 kPa, x2 = 0.6027	1610
313.17 K, 121580 kPa, x2 = 0.6027	1642.9
313.19 K, 101320 kPa, x2 = 0.1008	1580.6
313.19 K, 111450 kPa, x2 = 0.1008	1616.3
313.19 K, 121580 kPa, x2 = 0.1008	1649.7
313.2 K, 111450 kPa, x2 = 0	1622
313.2 K, 111450 kPa, x2 = 0.7016	1611.6
313.21 K, 101320 kPa, x2 = 0	1586.2
313.22 K, 45590 kPa, x2 = 0.7016	1358.4
313.22 K, 121580 kPa, x2 = 0.7016	1643.9
313.23 K, 30400 kPa, x2 = 0.7016	1284.3
313.23 K, 60790 kPa, x2 = 0.7016	1425.1
313.24 K, 100 kPa, x2 = 0.7016	1095.2
318.08 K, 100 kPa, x2 = 0.7986	1090.8
318.09 K, 75990 kPa, x2 = 0	1475.5
318.09 K, 121580 kPa, x2 = 0.7016	1632.8
318.11 K, 101320 kPa, x2 = 0.7986	1569.1
318.12 K, 45590 kPa, x2 = 0.7986	1351.4
318.12 K, 60790 kPa, x2 = 0.4992	1404.4
318.13 K, 100 kPa, x2 = 0.4992	1054.3
318.13 K, 30400 kPa, x2 = 0.7986	1277.9
318.13 K, 45590 kPa, x2 = 0.4992	1334.8
318.13 K, 111450 kPa, x2 = 0.7986	1602.7
318.13 K, 121580 kPa, x2 = 0.4992	1631.5
318.14 K, 100 kPa, x2 = 0.7016	1076.2
318.14 K, 30400 kPa, x2 = 0.4992	1256.9
318.14 K, 75990 kPa, x2 = 0.7986	1478
318.14 K, 121580 kPa, x2 = 0.7986	1634.8
318.15 K, 30400 kPa, x2 = 0.7016	1268.9
318.15 K, 45590 kPa, x2 = 0.7016	1344.1
318.15 K, 60790 kPa, x2 = 0.6027	1406.9
318.15 K, 60790 kPa, x2 = 0.7016	1411.6
318.15 K, 60790 kPa, x2 = 0.7986	1417.5
318.15 K, 75990 kPa, x2 = 0.1008	1469.4
318.15 K, 91190 kPa, x2 = 0	1535.7
318.15 K, 111450 kPa, x2 = 0.4992	1598
318.16 K, 45590 kPa, x2 = 0.6027	1338.2
318.16 K, 91190 kPa, x2 = 0.7016	1530.2
318.16 K, 91190 kPa, x2 = 0.7986	1533.9
318.16 K, 101320 kPa, x2 = 0.4992	1563
318.16 K, 101320 kPa, x2 = 0.7016	1565.9
318.17 K, 45590 kPa, x2 = 0	1337.4
318.17 K, 60790 kPa, x2 = 0	1409.6
318.17 K, 60790 kPa, x2 = 0.1008	1403.9
318.17 K, 75990 kPa, x2 = 0.7016	1473.2
318.17 K, 91190 kPa, x2 = 0.3008	1526.1
318.17 K, 91190 kPa, x2 = 0.4992	1526.3
318.17 K, 101320 kPa, x2 = 0.1008	1567.7
318.17 K, 111450 kPa, x2 = 0.1008	1603.7
318.17 K, 111450 kPa, x2 = 0.3008	1599
318.17 K, 111450 kPa, x2 = 0.7016	1600
318.17 K, 121580 kPa, x2 = 0	1644.3
318.17 K, 121580 kPa, x2 = 0.1008	1637
318.17 K, 121580 kPa, x2 = 0.3008	1633
318.18 K, 100 kPa, x2 = 0	1044.5
318.18 K, 100 kPa, x2 = 0.1008	1039.7
318.18 K, 15200 kPa, x2 = 0	1163.4
318.18 K, 15200 kPa, x2 = 0.1008	1157.8
318.18 K, 30400 kPa, x2 = 0	1256.5
318.18 K, 75990 kPa, x2 = 0.3008	1466.5
318.18 K, 75990 kPa, x2 = 0.4992	1467.8
318.18 K, 101320 kPa, x2 = 0	1573.6
318.18 K, 101320 kPa, x2 = 0.3008	1563.3
318.18 K, 111450 kPa, x2 = 0	1609.8
318.18 K, 121580 kPa, x2 = 0.6027	1631.3
318.19 K, 30400 kPa, x2 = 0.3008	1251.4
318.19 K, 45590 kPa, x2 = 0.1008	1331.6
318.19 K, 45590 kPa, x2 = 0.3008	1330.8
318.19 K, 60790 kPa, x2 = 0.3008	1401.9
318.2 K, 100 kPa, x2 = 0.6027	1063.5
318.2 K, 30400 kPa, x2 = 0.1008	1250.7
318.2 K, 101320 kPa, x2 = 0.6027	1563.5
318.21 K, 100 kPa, x2 = 0.3008	1043.8
318.21 K, 91190 kPa, x2 = 0.6027	1527.2
318.23 K, 30400 kPa, x2 = 0.6027	1261.4
318.23 K, 111450 kPa, x2 = 0.6027	1598
318.27 K, 75990 kPa, x2 = 0.6027	1469.2
